Where “and” joins values, the source holds several entries; their conditions need not be identical. Identical values can stand only once. Like-named read-outs stand apart in the source and are kept apart here.
How the values were obtained:
[1] = Locomotor activity (neurological effects); assay type: in vivo, Wistar rats
Description: Locomotor activity was used to assess neurological effects of DMAMCL. Wistar rats (150–170 g) were divided into the following 3 groups (10 rats /group): 1) vehicle control, 2) DMAMCL at 100 mg/kg, and 3) DMAMCL at 300 mg/kg. DMAMCL was administered orally once a day for 21 days. Rat locomotor activities were monitored on days 1, 10, 21 and 28 using Aninal Behavioral Analysis System (AniLab Software and Instruments Co, Ltd, China). Briefly, rats were gently placed in the locomotor activity boxes equipped with infrared photobeams and individual total distance (cm) of rat running was recorded during a test period of 60 min. The test apparatus was cleaned to eliminate odors for the next test after each animal was tested.

intracerebral C6 glioma = assay: Survival time analysis in C6 intracerebral glioma rats; assay type: in vivo, Wistar rats; details: for Survival (# of rats) End: 63 days, n = 10; for Survival: at 63 days; for Mean survival / Median survival: observation 63 days
Description: C6 tumors were maintained as subcutaneous tumors in rats.
The survival time analyses were performed in C6 intracerebral glioma rats. […] Animals were monitored daily for signs of mortality and weight. Rats were sacrificed when a loss of mobility, lethargy, hemorrhaging around the eyes, or a hunched posture was observed as previously described. The observation time was terminated when all the vehicle rats died. Then the other rats were euthanized by CO2 asphyxiation.

U-87MG cells = assay: Cell proliferation MTT assay, U-87MG; assay type: cell-based; details: Homo sapiens, 72 h
Description: C6 and U-87MG cell lines were obtained from the American Type Culture Collection (ATCC) and cultured in our laboratory. Rat C6 glioma cells were cultured in F12K nutrient medium (Gibco, Grand Island, […]) supplemented with 15% horse serum (Auckland, NZ), 2.5% fetal bovine serum (FBS), 100 U/mL penicillin, and […] streptomycin (Gibco, Paisley, Scotland, UK). Human U-87MG cells were cultured in minimum essential medium (MEM) supplemented with 10% FBS, 1% nonessential amino acids, 100 U/mL penicillin, and […] streptomycin. Cells were cultured under a humidified atmosphere containing 5% CO2 at 37°C, and medium was changed every 1 to 2 days.
Tumor cells were seeded in 96-well plates at a density of 3500 cells/well. After 24 h in culture, cells were exposed to different concentrations of DMAMCL or medium alone (control) for 72 h. Cell viability was determined by MTT assays. Briefly, MTT regent (0.5 mg/mL) was added to wells, and cells were incubated for 4 h at 37°C. After removing the supernatant, 200 μL of dimethyl sulfoxide (DMSO) (Fluka, Switzerland) was added to dissolve formazan crystals. The absorbance at 570 nm was measured by a microplate reader (Thermo Labsystems, Helsinki, Finland). Control absorbance was taken as 100%. The absorbance of DMAMCL-treated cells was taken as percentage survival. […]

[2] = tested on: Bcl-2 and Bax in U-87MG cells; assay: Western blotting of Bcl-2 and Bax, U-87MG cells; assay type: cell-based, human; details: 60 μM and 120μM, 24 hr
Description: The cellular proteins were extracted from 10^7 cultured cells after drug treatments using RIPA lysis buffer (Promega, USA). Western blotting analysis was performed to determine cellular responses targeting apoptosis-related proteins including Bcl-2 and Bax. Briefly, C6 and U-87MG cells were treated with different doses of DMAMCL for 24 hr at 37°C. Then cells were washed twice with cold phosphate buffered saline (PBS) and lysed in RIPA buffer containing 1mmol/l PMSF (Pheylmethylsulfonyl fluoride, Sigma, USA) on ice for 30 min. The total proteins of cells were obtained by centrifugation at 12000 rpm for 15 min. Next, the lysate proteins were resolved by SDS-PAGE and transferred to the Immobilon-P membranes (Millipore, Billerica, MA, USA). The membranes were blocked by 5% nonfat milk in Tris-buffered saline with 0.1% Tween 20 (TBST) and immunoblotted with the antibodies against β-actin, Bcl-2 and Bax (Cellsignaling Technology, USA) at 4°C overnight. Then membranes were incubated with HRP-conjugated secondary antibody for 1.5 hr at room temperature. The targeting antibodies were stained with enhanced chemiluminescent reagents (Millipore, Billerica, MA, USA) and visualized by ChemiScope 3600 Mini systerm (Clinx Science Instruments, China).

[3] = Biodistribution of DMAMCL in rats after a single oral dose (UPLC-MS/MS); assay type: in vivo, Wistar rats; set-up: Mean concentration in brain: unit not given here; details: single oral dose 100 mg/kg
Description: All rats had free access to food and water. Before drug administration, rats were fasted for 12 h and water was freely available.
Aqueous DMAMCL solutions were administered orally (100 mg/kg) (n = 6 rats per group). Blood and tissue samples from rats were collected at the setting time and analyzed on an ultraperformance liquid chromatography-mass spectrometry (UPLC-MS/MS) system (Waters/Micromass, Milford, MA) using noncompartmental analyses. All the biological specimens were detected at once or stored at -80°C for detection.

C6 cells = assay: Apoptosis by Annexin V/PI flow cytometry, C6; assay type: cell-based, rat
Description: Glioma cells (10^4) in the logarithmic growth phase were seeded in 6-well plates for 24 h. Cells were treated with DMAMCL at 240, 120, 60, 30, 15, or 0 μM. They were removed from culture plates with 0.5% trypsin containing ethylene diamine tetraacetic acid (EDTA). Apoptosis of C6 cells was measured using an Annexin V and propidium iodide (PI) apoptosis detection kit (Invitrogen, USA) and a Beckman flow cytometer (Cytomics FC500, Beckman Coulter, USA).

[4] = DMAMCL 25 mg/kg daily for 21 days
[5] = DMAMCL 50 mg/kg daily for 21 days
[6] = DMAMCL 100 mg/kg daily for 21 days

With `CC1=C2CC[C@@](C)(O)[C@@H]2[C@H]2OC(=O)[C@@H](CN(C)C)[C@@H]2CC1` [DMAMCL, dimethylaminomicheliolide] the Locomotor activity ([1]; 100mg/kg orally once a day for 21 days, observation period) was “as active as vehicle group”, the “Locomotor activity, total distance” value ([1]; 300mg/kg orally once a day, following days) was “still less active than vehicle group, but without significant statistical difference” and the “Locomotor activity, total distance” value ([1]; 300mg/kg orally, first day) was “decreased compared with vehicle group”. For the same compound, the “Locomotor activity, total distance” value ([1]; 300mg/kg, within one week of DMAMCL withdrawal) was “no significant changes were observed”, the “Median survival of deceased animals” value (intracerebral C6 glioma; [4]) was 28 days and the “Time of death End” value (intracerebral C6 glioma; [4]) was 42 days. The “Time of death Start” value (intracerebral C6 glioma; [4]) was 20 days, the “Survival (# of rats) End” value (intracerebral C6 glioma; [4]) was 7 # of rats and the Survival (intracerebral C6 glioma; [4]) was 70% and 70 ^** %. For the same compound, the Mean survival (intracerebral C6 glioma; [4]) was 53.1 ± 16.8 days, the Median survival (intracerebral C6 glioma; [4]) was 63 days and the “Median survival of deceased animals” value (intracerebral C6 glioma; [5]) was 25 days. For the same compound, the “Time of death End” value (intracerebral C6 glioma; [5]) was 25 days, the “Time of death Start” value (intracerebral C6 glioma; [5]) was 25 days and the “Survival (# of rats) End” value (intracerebral C6 glioma; [5]) was 9 # of rats. For the same compound, the Survival (intracerebral C6 glioma; [5]) was 90% and 90 ^*** %, the Mean survival (intracerebral C6 glioma; [5]) was 59.2 ± 12 days and the Median survival (intracerebral C6 glioma; [5]) was 63 days. For the same compound, the “Median survival of deceased animals” value (intracerebral C6 glioma; [6]) was 41 days, the “Time of death End” value (intracerebral C6 glioma; [6]) was 41 days and the “Time of death Start” value (intracerebral C6 glioma; [6]) was 41 days. For the same compound, the “Survival (# of rats) End” value (intracerebral C6 glioma; [6]) was 9 # of rats, the Survival (intracerebral C6 glioma; [6]) was 90% and 90 ^*** % and the Mean survival (intracerebral C6 glioma; [6]) was 60.8 ± 7 days. The Median survival (intracerebral C6 glioma; [6]) was 63 days, the “Survival longer than vehicle animals” value (intracerebral C6 glioma; DMAMCL-treated rats) was ~ 30 days and the IC50 (U-87MG cells; read-out: IC50) was 20.6 ± 1.61 µM. For the same compound, the IC50 (U-87MG cells; read-out: x0 (midpoint of logistic fit, Fig 3B) (converted)) was 20.6 ± 1.6 µM, the “Bax expression (Western blot)” value [2] was “up-regulated Bax expression” and the “Bcl-2 expression (Western blot)” value [2] was “down-regulated Bcl-2 expression”. It also gave a Kp at 0.083 h ([3]; Wistar, rat, brain, rats, 0.083h, read-out: C brain / C plasma) of 1.45, a Kp at 0.5 h ([3]; Wistar, rat, brain, rats, 0.5h, read-out: C brain / C plasma) of 1.84 and a Kp at 3 h ([3]; Wistar, rat, brain, rats, 3h, read-out: C brain / C plasma) of 1.91. It also gave a concentration at 3 h ([3]; Wistar, rat, brain, read-out: Concentration in rat brain) of 4.91 ± 0.869 µg/mL, a Tmax ([3]; Wistar, rat, brain, read-out: Time of peak concentration in rat brain) of 30 min and a concentration at 3 h ([3]; Wistar, rat, plasma, read-out: Concentration in plasma) of 2.57 ± 0.968 µg/mL. The “Concentration in brain compared with plasma” value ([3]; rats) was “higher in the brain than in plasma”, the “Concentration in tissues compared with plasma” value ([3]; rats) was “dramatically higher in almost all tissues than in plasma” and the “Mean concentration in brain” value ([3]; rats, 0.083h) was 6360. The “Mean concentration in plasma” value ([3]; rats, 0.083h) was 4373 µg/mL, the “Mean concentration in brain” value ([3]; rats, 0.5h) was 18970 and the “Mean concentration in plasma” value ([3]; rats, 0.5h) was 10310 µg/mL. For the same compound, the “Mean concentration in brain” value ([3]; rats, 3h) was 4913, the “Mean concentration in plasma” value ([3]; rats, 3h) was 2567 µg/mL and the “Peak concentration in rat brain” value ([3]; 0.5 hours after administration) was 18970 ± 9603 ng/mL. For the same compound, the Surviving cells (C6 cells; 240 μM) was “few surviving” and the “Early and late apoptosis and necrosis” value (C6 cells; 24 hr post-treatment, dose-dependent) was “significantly increased early and late apoptosis and necrosis”.
